Assay results as given in patent US20250388589A1, “TRICYCLIC HETEROCYCLIC DERIVATIVES, COMPOSITIONS AND USES THEREOF” (Danatlas Pharmaceuticals Co., Ltd., priority 2022, published 2025).

Assays:
[1] = biological target: hPARG (C-terminal His6-tag) (Homo sapiens (Human), UniProt Q86W56); assay: PARG Enzymatic Activity Assay (HTRF); format: biochemical; conditions: hPARG 65 pM final, biotinylated-NAD ribosylated PARP1 8 nM final
Summary of the method: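 E. coli-expressed enzyme (65 pM final) preincubated 60 min RT with compounds (10-point 4-fold dilution, duplicate) in 50 mM Tris pH 7.4, 3 mM EDTA, 1 mM DTT, 50 mM KCl, 0.01% Tween 20. Biotinylated-NAD ribosylated PARP1 substrate (8 nM final) reacted 10 min RT; Eu-streptavidin/anti-6HIS-XL665 HTRF read 665/620 nm after 60 min. IC50 from 4-parameter Hill fit.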

Kuramochi cell line = assay: Cell Viability Assay (Cell Titer-Glo, 7 days); format: cell-based; conditions: 168 h, Kuramochi cells, 7 days incubation, read-out: PARG Cell viability (IC50)
Summary of the method: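 Kuramochi cells in RPMI with 10% FBS, seeded at 400 cells/well, were treated with a 9-point 3-fold dilution series in duplicate for 7 days at 37 °C, 5% CO2. Viability by CellTiter-Glo luminescence, normalised to DMSO and medium-only controls; IC50 from 4-parameter Hill fit.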

Chain of hPARG (C-terminal His6-tag) (Q86W56 whole entry): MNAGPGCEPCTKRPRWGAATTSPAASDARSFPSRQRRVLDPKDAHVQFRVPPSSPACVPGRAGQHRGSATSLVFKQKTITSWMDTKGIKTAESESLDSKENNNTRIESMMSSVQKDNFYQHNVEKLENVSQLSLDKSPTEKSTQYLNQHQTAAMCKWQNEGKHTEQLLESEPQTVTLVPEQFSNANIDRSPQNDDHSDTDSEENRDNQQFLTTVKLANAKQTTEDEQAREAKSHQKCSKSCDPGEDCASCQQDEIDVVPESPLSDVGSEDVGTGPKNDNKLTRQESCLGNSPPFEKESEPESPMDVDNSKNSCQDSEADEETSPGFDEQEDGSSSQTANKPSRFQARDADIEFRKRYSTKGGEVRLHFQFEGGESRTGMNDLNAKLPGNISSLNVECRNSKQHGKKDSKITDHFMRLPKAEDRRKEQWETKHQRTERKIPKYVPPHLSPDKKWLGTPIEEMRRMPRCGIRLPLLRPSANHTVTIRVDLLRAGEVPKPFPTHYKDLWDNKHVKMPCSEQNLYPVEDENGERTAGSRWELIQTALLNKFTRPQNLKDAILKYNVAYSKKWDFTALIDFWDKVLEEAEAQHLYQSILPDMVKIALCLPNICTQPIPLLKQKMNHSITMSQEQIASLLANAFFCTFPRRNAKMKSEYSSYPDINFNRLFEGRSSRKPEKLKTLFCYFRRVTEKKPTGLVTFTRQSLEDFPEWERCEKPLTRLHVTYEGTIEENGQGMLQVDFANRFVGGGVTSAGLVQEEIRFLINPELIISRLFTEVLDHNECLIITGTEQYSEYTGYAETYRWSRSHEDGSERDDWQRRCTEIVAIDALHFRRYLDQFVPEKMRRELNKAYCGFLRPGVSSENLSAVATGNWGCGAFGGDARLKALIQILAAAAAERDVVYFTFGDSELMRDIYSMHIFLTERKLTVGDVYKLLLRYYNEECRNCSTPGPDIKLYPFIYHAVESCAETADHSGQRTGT

Row | Compound | IC50 [1] [nM] | IC50 (Kuramochi cell line) [nM]
1 | N#CC1(NS(=O)(=O)c2ccc3c4c(C5CCCCO5)ncnc4n(-c4nnc(C(F)F)s4)c3c2)CC1 (stereo not shown) [Example 83, N-(1-cyanocyclopropyl)-9-(5-(difluoromethyl)-1,3,4-thiadiazol-2-yl)-4-(tetrahydro-2H-pyran-2-yl)-9H-pyrimido[4,5-b]indole-7-sulfonamide] | < 100 | 100 to 1000
2 | N#CC1(NS(=O)(=O)c2ccc3c4c(C5=CCC(O)CC5)ncnc4n(-c4nnc(C(F)F)s4)c3c2)CC1 (stereo not shown) [Example 84, N-(1-Cyanocyclopropyl)-9-(5-(difluoromethyl)-1,3,4-thiadiazol-2-yl)-4-(4-hydroxycyclohex-1-en-1-yl)-9H-pyrimido[4,5-b]indole-7-sulfonamide] | < 100 | < 100
3 | N#CC1(NS(=O)(=O)c2ccc3c4c(C5CCC(O)CC5)ncnc4n(-c4nnc(C(F)F)s4)c3c2)CC1 (stereo not shown) [Example 85, N-(1-Cyanocyclopropyl)-9-(5-(difluoromethyl)-1,3,4-thiadiazol-2-yl)-4-(4-hydroxycyclohexyl)-9H-pyrimido[4,5-b]indole-7-sulfonamide] | < 100 | < 100
4 | CC(C)(C)OC(=O)N1CCC(c2ncnc3c2c2ccc(S(=O)(=O)NC4(C#N)CC4)cc2n3-c2nnc(C(F)F)s2)CC1 [Example 86, tert-butyl 4-(7-(N-(1-cyanocyclopropyl)sulfamoyl)-9-(5-(difluoromethyl)-1,3,4-thiadiazol-2-yl)-9H-pyrimido[4,5-b]indol-4-yl)piperidine-1-carboxylate] | < 100 | 100 to 1000
5 | N#CC1(NS(=O)(=O)c2ccc3c4c(C5CCNCC5)ncnc4n(-c4nnc(C(F)F)s4)c3c2)CC1 [Example 87, N-(1-Cyanocyclopropyl)-9-(5-(difluoromethyl)-1,3,4-thiadiazol-2-yl)-4-(piperidin-4-yl)-9H-pyrimido[4,5-b]indole-7-sulfonamide] | < 100 | 100 to 1000
6 | CN(C)C(=O)N1CCC(c2ncnc3c2c2ccc(S(=O)(=O)NC4(C#N)CC4)cc2n3-c2nnc(C(F)F)s2)CC1 [Example 88, 4-(7-(N-(1-Cyanocyclopropyl)sulfamoyl)-9-(5-(difluoromethyl)-1,3,4-thiadiazol-2-yl)-9H-pyrimido[4,5-b]indol-4-yl)-N,N-dimethylpiperidine-1-carboxamide] | < 100 | < 100
7 | CN(C)C(=O)N1CCC(c2ncnc3c2c2cc(F)c(S(=O)(=O)NC4(C#N)CC4)cc2n3-c2nnc(C(F)F)s2)CC1 [Example 89, 4-(7-(N-(1-Cyanocyclopropyl)sulfamoyl)-9-(5-(difluoromethyl)-1,3,4-thiadiazol-2-yl)-6-fluoro-9H-pyrimido[4,5-b]indol-4-yl)-N,N-dimethylpiperidine-1-carboxamide] | < 100 | < 100
8 | CC(C)C(=O)N1CCC(c2ncnc3c2c2cc(F)c(S(=O)(=O)NC4(C#N)CC4)cc2n3-c2nnc(C(F)F)s2)CC1 [Example 90, N-(1-Cyanocyclopropyl)-9-(5-(difluoromethyl)-1,3,4-thiadiazol-2-yl)-6-fluoro-4-(1-isobutyrylpiperidin-4-yl)-9H-pyrimido[4,5-b]indole-7-sulfonamide] | < 100 | < 100
9 | CC(C)C(=O)N1CC=C(c2ncnc3c2c2cc(F)c(S(=O)(=O)NC4(C#N)CC4)cc2n3-c2nnc(C(F)F)s2)CC1 [Example 91, N-(1-Cyanocyclopropyl)-9-(5-(difluoromethyl)-1,3,4-thiadiazol-2-yl)-6-fluoro-4-(1-isobutyryl-1,2,3,6-tetrahydropyridin-4-yl)-9H-pyrimido[4,5-b]indole-7-sulfonamide] | < 100 | < 100
10 | CC(C)C(=O)N1C=CC(c2ncnc3c2c2cc(F)c(S(=O)(=O)NC4(C#N)CC4)cc2n3-c2nnc(C(F)F)s2)CC1 (stereo not shown) [Example 92, N-(1-Cyanocyclopropyl)-9-(5-(difluoromethyl)-1,3,4-thiadiazol-2-yl)-6-fluoro-4-(1-isobutyryl-1,2,3,4-tetrahydropyridin-4-yl)-9H-pyrimido[4,5-b]indole-7-sulfonamide] | < 100 | < 100
11 | CC1(NS(=O)(=O)c2ccc3c4c(C5CCNCC5)ncnc4n(-c4nnc(C(F)F)s4)c3c2)CC1 [Example 93, 9-(5-(Difluoromethyl)-1,3,4-thiadiazol-2-yl)-N-(1-methylcyclopropyl)-4-(piperidin-4-yl)-9H-pyrimido[4,5-b]indole-7-sulfonamide] | < 100 | < 100
12 | CC1(NS(=O)(=O)c2ccc3c4c(C5CCN(C(=O)C(C)(C)O)CC5)ncnc4n(-c4nnc(C(F)F)s4)c3c2)CC1 [Example 94, 9-(5-(Difluoromethyl)-1,3,4-thiadiazol-2-yl)-4-(1-(2-hydroxy-2-methylpropanoyl)piperidin-4-yl)-N-(1-methylcyclopropyl)-9H-pyrimido[4,5-b]indole-7-sulfonamide] | < 100 | < 100
13 | CO[C@H](C)C(=O)N1CCC(c2ncnc3c2c2ccc(S(=O)(=O)NC4(C)CC4)cc2n3-c2nnc(C(F)F)s2)CC1 [Example 95, (R)-9-(5-(Difluoromethyl)-1,3,4-thiadiazol-2-yl)-4-(1-(2-methoxypropanoyl)piperidin-4-yl)-N-(1-methylcyclopropyl)-9H-pyrimido[4,5-b]indole-7-sulfonamide] | < 100 | < 100
14 | CO[C@@H](C)C(=O)N1CCC(c2ncnc3c2c2ccc(S(=O)(=O)NC4(C)CC4)cc2n3-c2nnc(C(F)F)s2)CC1 [Example 96, (S)-9-(5-(Difluoromethyl)-1,3,4-thiadiazol-2-yl)-4-(1-(2-methoxypropanoyl)piperidin-4-yl)-N-(1-methylcyclopropyl)-9H-pyrimido[4,5-b]indole-7-sulfonamide] | < 100 | < 100
15 | CN(C)C(=O)c1ccc(-c2ncnc3c2c2ccc(S(=O)(=O)NC4(C#N)CC4)cc2n3-c2nnc(C(F)F)s2)cn1 [Example 97, 5-(7-(N-(1-cyanocyclopropyl)sulfamoyl)-9-(5-(difluoromethyl)-1,3,4-thiadiazol-2-yl)-9H-pyrimido[4,5-b]indol-4-yl)-N,N-dimethylpicolinamide] | < 100 | < 100
16 | C[C@H]1CN(c2ncnc3c2c2ccc(S(=O)(=O)NC4(C#N)CC4)cc2n3-c2nnc(C(F)F)s2)CCN1C [Example 98, (S)—N-(1-Cyanocyclopropyl)-9-(5-(difluoromethyl)-1,3,4-thiadiazol-2-yl)-4-(3,4-dimethylpiperazin-1-yl)-9H-pyrimido[4,5-b]indole-7-sulfonamide] | < 100 | < 100
17 | C[C@H]1CN(c2ncnc3c2c2ccc(S(=O)(=O)NC4(C)CC4)cc2n3-c2nnc(C(F)F)s2)CCO1 [Example 99, (S)-9-(5-(Difluoromethyl)-1,3,4-thiadiazol-2-yl)-N-(1-methylcyclopropyl)-4-(2-methylmorpholino)-9H-pyrimido[4,5-b]indole-7-sulfonamide] | < 100 | < 100
18 | C[C@@H]1CN(C(=O)N(C)C)[C@@H](C)CN1c1ncnc2c1c1ccc(S(=O)(=O)NC3(C)CC3)cc1n2-c1nnc(C(F)F)s1 [Example 100, (2S,5R)-4-(9-(5-(difluoromethyl)-1,3,4-thiadiazol-2-yl)-7-(N-(1-methylcyclopropyl)sulfamoyl)-9H-pyrimido[4,5-b]indol-4-yl)-N,N,2,5-tetramethylpiperazine-1-carboxamide] | < 100 | < 100
19 | C[C@H]1CN(c2ncnc3c2c2ccc(S(=O)(=O)NC4(C)CC4)cc2n3-c2nnc(C(F)F)s2)CCN1C(=O)N(C)C [Example 101, (S)-4-(9-(5-(Difluoromethyl)-1,3,4-thiadiazol-2-yl)-7-(N-(1-methylcyclopropyl)sulfamoyl)-9H-pyrimido[4,5-b]indol-4-yl)-N,N,2-trimethylpiperazine-1-carboxamide] | < 100 | < 100
20 | C[C@H]1CN(c2ncnc3c2c2cc(F)c(S(=O)(=O)NC4(C)CC4)cc2n3-c2nnc(C(F)F)s2)CCN1C(=O)N(C)C [Example 102, (S)-4-(9-(5-(Difluoromethyl)-1,3,4-thiadiazol-2-yl)-6-fluoro-7-(N-(1-methylcyclopropyl)sulfamoyl)-9H-pyrimido[4,5-b]indol-4-yl)-N,N,2-trimethylpiperazine-1-carboxamide] | < 100 | < 100
21 | CC(C)C(=O)N1CC=C(c2ncnc3c2c2cc(F)c(S(=O)(=O)NC4(C)CC4)cc2n3-c2nnc(C(F)F)s2)CC1 [Example 103, 9-(5-(Difluoromethyl)-1,3,4-thiadiazol-2-yl)-6-fluoro-4-(1-isobutyryl-1,2,3,6-tetrahydropyridin-4-yl)-N-(1-methylcyclopropyl)-9H-pyrimido[4,5-b]indole-7-sulfonamide] | < 100 | < 100
22 | CN1CCC[C@@H]1C(=O)N1CCC(c2ncnc3c2c2ccc(S(=O)(=O)NC4(C#N)CC4)cc2n3-c2nnc(C(F)F)s2)CC1 [Example 104, N-(1-Cyanocyclopropyl)-9-(5-(difluoromethyl)-1,3,4-thiadiazol-2-yl)-4-(1-(methyl-D-prolyl)piperidin-4-yl)-9H-pyrimido[4,5-b]indole-7-sulfonamide] | < 100 | 100 to 1000
23 | CC(=O)N1CCC(c2ncnc3c2c2ccc(S(=O)(=O)NC4(C#N)CC4)cc2n3-c2nnc(C(F)F)s2)CC1 [Example 105, 4-(1-acetylpiperidin-4-yl)-N-(1-cyanocyclopropyl)-9-(5-(difluoromethyl)-1,3,4-thiadiazol-2-yl)-9H-pyrimido[4,5-b]indole-7-sulfonamide] | < 100 | < 100
